Laboratory results from paper PMC5526998, “Structural analysis of the regulatory mechanism of MarR protein Rv2887 in M. tuberculosis” (Scientific Reports, 2017).

Target: Rv2887 (Mycobacterium tuberculosis, UniProt P9WME9)
Assay: biochemical

Rv2887, sequence (P9WME9 whole entry): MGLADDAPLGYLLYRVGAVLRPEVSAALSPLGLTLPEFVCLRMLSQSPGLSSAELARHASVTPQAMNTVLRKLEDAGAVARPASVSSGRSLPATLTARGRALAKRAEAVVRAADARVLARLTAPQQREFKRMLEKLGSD

SMILES | Kd [µM]
Nc1ccc(C(=O)O)c(O)c1 [PAS] | 183
Cc1ccc(C)c(OCCCC(C)(C)C(=O)O)c1 [gemfibrozil] | 7.94
